{
  "source": "paper PMC10540216",
  "about": "“Activity Guided Azide-methyllysine Photo-trapping for Substrate Profiling of Lysine Demethylases” (Journal of the American Chemical Society, 2023)",
  "key": {"G9a": {"system": "G9a", "assay": "Methylation of eIF4A3-K374 peptides by KMT (MALDI-TOF MS)", "type": "biochemical", "conditions": "20 µM KMT, 10 µM peptide, 200 µM SAM", "procedure": "(§1) 7. Expression and purification of lysine methyltransferases and Chromodomains […]\n(§2) 16. Methylation activity of wild type KMTs on eIF4A3-K374me0/1/2 peptides 20 µM lysine methyltransferase, 10 µM eIF4A3-me0/1/2 peptide and 200 µM SAM were incubated at room temperature for 1-2 hours in 50 mM Tris pH 8.0. Reaction was stopped by storing the microcentrifuge tubes on ice. After mixing, 0.8 µL of sample and 0.8 µL of α-cyano-4-hydroxycinnamic acid (CHCA) (dissolved in 50:50 0.1% TFA and acetonitrile) were combined on a MALDI plate. Samples were ionized using reflectron positive mode on Bruker Daltonics UltrafleXtreme MALDI TOF with detection carried out from 700-3500 m/z. Bruker Flex Analysis software was used to analyze the MALDI-TOF MS spectra.\n(§3) 17. Isothermal Titration Calorimetry […]\n(§4) The microsyringe (40µL) was loaded with 1.1 mM peptide and injected into the cell (200µL), occupied by CBX1 chromodomain at a concentration of 110 µM. Data was fitted to a single binding site model using Microcal ITC200 Software with Origin Lab 7.\n(§5) KDM4A mammalian expression plasmid in CMV vector was purchased from Addgene (plasmid #24180). Full-length G9a in pCDNA3 vector was kind from Prof. Minkui Luo at the Memorial Sloan-Kettering Cancer Center. HEK293T/17 cells (ATCC) were grown in a T25 containing Delbucco’s Modified Eagle Medium (DMEM) (Corning) with 10% FBS at 37 °C, 5% CO2, and 95% relative humidity. When cells reached 80% confluency, 5 µg of plasmid and 10 µg"}, "SUV39H2": {"system": "SUV39H2", "assay": "Methylation of eIF4A3-K374 peptides by KMT (MALDI-TOF MS)", "type": "biochemical", "conditions": "20 µM KMT, 10 µM peptide, 200 µM SAM", "procedure": "as §1, §2, §3, §4, §5"}, "METTL20": {"system": "METTL20", "assay": "Methylation of eIF4A3-K374 peptides by KMT (MALDI-TOF MS)", "type": "biochemical", "conditions": "20 µM KMT, 10 µM peptide, 200 µM SAM", "procedure": "(§6) expression constructs in pET28a or pET 28-MHL were obtained from Addgene: CAMKMT […]\n(§7) (Addgene #60091) and METTL21C (Addgene #60100). Plasmids were transformed into E. Coli BL21 (DE3) competent cells (Invitrogen) using appropriate resistant antibiotic. A single colony was picked up and grown overnight at 37 °C in 10 mL of Luria-Bertani (LB) broth in the presence of 50 μg/mL kanamycin and 35 μg/mL chloramphenicol. The culture was diluted 100-fold and allowed to grow at 37 °C to an optical density (OD600) of a minimum of 0.8, and protein expression was induced overnight at 17 °C with 0.5 to 1.0 mM IPTG in an Innova 44® Incubator shaker (New Brunswick Scientific). Proteins were purified as follows: harvested cells were resuspended in 15 mL lysis buffer (50 mM Tris-HCl pH 8.0, 200 mM NaCl, 5 mM β-mercaptoethanol, 10% glycerol, 25 mM imidazole, Lysozyme, DNase, and Roche protease inhibitor cocktail). The cells were lysed by pulsed sonication (Qsonica-Q700), and centrifuged at 13,000 rpm for 40 min at 4°C. The soluble extracts were subject to Ni-NTA agarose resin (Thermo) according to manufacturer’s instructions. After passing 20 volumes of washing buffer (50 mM Tris-HCl pH 8.0, 200 mM NaCl, 5 mM β-mercaptoethanol, 10% glycerol, and 25 mM imidazole), proteins were eluted with a buffer containing 50 mM Tris-HCl pH 8.0, 200 mM NaCl, 5 mM β-mercaptoethanol, 10% glycerol, and 400 mM imidazole. Proteins were further purified by size exclusion chromatography (Superdex-200) using AKTA pure FPLC system (GE healthcare) with buffer containing 50 mM Tris-HCl pH 8.0, 200 mM NaCl, and 10% glycerol. Purified proteins were concentrated using Pierce™ Protein Concentrator PES, 10K MWCO, 5-20 mL (Thermo Scientific™ 88527). The protein concentration was determined using Bradford assay kit (BioRad Laboratories) with BSA as a standard. The concentrated proteins were stored at -80 °C before use. […]\nas §2, §3\n(§8) The microsyringe (40µL) was loaded with 1.1 mM peptide and injected into the cell (200µL), occupied by CBX1 chromodomain at a concentration of 110 µM. […]"}, "DOT1L": {"system": "DOT1L", "assay": "Methylation of eIF4A3-K374 peptides by KMT (MALDI-TOF MS)", "type": "biochemical", "conditions": "20 µM KMT, 10 µM peptide, 200 µM SAM", "procedure": "as §6, §7, §2, §3, §8"}, "METTL21A": {"system": "METTL21A", "assay": "Methylation of eIF4A3-K374 peptides by KMT (MALDI-TOF MS)", "type": "biochemical", "conditions": "20 µM KMT, 10 µM peptide, 200 µM SAM", "procedure": "as §6, §7, §2, §3, §8"}, "METTL21C": {"system": "METTL21C", "assay": "Methylation of eIF4A3-K374 peptides by KMT (MALDI-TOF MS)", "type": "biochemical", "conditions": "20 µM KMT, 10 µM peptide, 200 µM SAM", "procedure": "as §6, §7, §2, §3, §8"}, "CBX1 chromodomain [1]": {"molecular_target": "T1, CBX1 chromodomain (Homo sapiens, UniProt P83916)", "T1 construct": "occupied by CBX1 chromodomain at a concentration of 110 µM; 6xHis (N); made in house", "T1 sequence (P83916 21-79 limits assumed)": "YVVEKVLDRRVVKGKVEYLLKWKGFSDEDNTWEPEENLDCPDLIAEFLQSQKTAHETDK", "assay": "Isothermal titration calorimetry of peptide binding to CBX1 chromodomain", "conditions": "ITC, 25 °C, 1.1 mM peptide into 110 µM CBX1 chromodomain, 50mM Tris pH 8.0", "procedure": "as §1\n17. Isothermal Titration Calorimetry\nIsothermal titration calorimetry (ITC) was performed with an ITC200 instrument (MicroCal, Malvern). Experiments were conducted at 25 °C while stirring at 750 rpm. Buffers of protein […]\nwere matched to 200mM NaCl, 10% glycerol, and 50mM Tris pH 8.0. Each titration was performed as follows: one initial injection of 0.4 µL for 0.8 seconds, followed by 19 injections of 2.0 µL for 4 seconds, with ≥2 mins between each injection. The initial injection was discarded prior to data analysis. The microsyringe (40µL) was loaded with 1.1 mM peptide and injected into the cell (200µL), occupied by CBX1 chromodomain at a concentration of 110 µM. Data was fitted to a single binding site model using Microcal ITC200 Software with Origin Lab 7.\nas §5"}, "CBX1 chromodomain [2]": {"molecular_target": "T1, CBX1 chromodomain", "assay": "Isothermal titration calorimetry of peptide binding to CBX1 chromodomain", "conditions": "ITC, T 288.15 K in Table S6"}, "KDM4E": {"system": "KDM4E", "assay": "Demethylase activity of wild type KDM4E on peptide substrates (MALDI-TOF MS)", "type": "biochemical", "conditions": "10 µM enzyme, 10 µM peptide, 1 mM 2OG, 50 mM Tris pH 8, 37°C, three hours", "procedure": "200 FPLC column. The proteins were concentrated via centrifugation. Protein concentration was determined using Bradford assay.\nThe N-terminal 6xHis-tagged KDM4E construct for bacterial expression was purchased from Addgene (#38990) and expressed following reported method.8 The wild type KDM4E plasmid was transformed into E. Coli BL21 (DE3) competent cells (Invitrogen) using pNIC28-Bsa4 kanamycin-resistant vector. A single colony was grown overnight at 37 °C in 10 mL of Luria-Bertani (LB) broth in the presence of 50 μg/mL kanamycin and 35 μg/mL chloramphenicol. The culture was diluted 100-fold and allowed to grow at 37 °C to an optical density (OD600) of 0.8, and protein expression was induced overnight at 17 °C with 1 mM IPTG in an Innova 44® Incubator shaker (New Brunswick Scientific). KDM4E was purified from pelleted cells by resuspending in lysis buffer (50 mM Tris-HCl pH 8.0, 200 mM NaCl, 5 mM β-ME, 10% glycerol, 25 mM imidazole, lysozyme, DNase, and Pierce protease inhibitor cocktail). The cells were lysed by sonication at 60 mA, 10 seconds on followed by 10 seconds off, for a total of 2 minutes. The cell debris was pelleted at 13,000 rpm for 40 minutes. The soluble cell extracts were incubated with Ni-NTA agarose resin (Thermo) according to manufactures protocol. […] Bradford Dye (BioRad) was used to quantify the protein concentration using BSA as a standard. […]"}},
  "note": "Entries after “also recorded” stand apart in the source; their conditions may differ. Where no end group is shown, it is not given here. [ ]: non-standard residue; d: D form. Lys(Me3) = C[N+](C)(C)CCCC[C@H](N)C(=O)O",
  "data": [
    {"substance": "GRSGRYGRKGVAINFVK [compound 21, eIF4A3-K374me0 peptide]", "values": [
      {"measurement": "methylation by G9a (in words)", "setting": "G9a", "value": "also methylated eIF4A3-K374me0; also recorded: di- and trimethylation"},
      {"measurement": "methylation by SUV39H2 (in words)", "setting": "SUV39H2", "value": "also methylated eIF4A3-K374me0; also recorded: monomethylated"},
      {"measurement": "methylation by METTL20 (in words)", "setting": "METTL20", "value": "failed to methylate"},
      {"measurement": "methylation by DOT1L (in words)", "setting": "DOT1L", "value": "failed to methylate"},
      {"measurement": "methylation by METTL21A (in words)", "setting": "METTL21A", "value": "failed to methylate"},
      {"measurement": "methylation by METTL21C (in words)", "setting": "METTL21C", "value": "failed to methylate"},
      {"measurement": "binding to CBX1 chromodomain (in words)", "setting": "CBX1 chromodomain [1]", "value": "no detectable interaction"},
      {"measurement": "TΔS", "setting": "CBX1 chromodomain [2]", "value": 0, "unit": "kcal/mol"},
      {"measurement": "ΔG", "setting": "CBX1 chromodomain [2]", "value": 0, "unit": "kcal/mol"},
      {"measurement": "ΔH", "setting": "CBX1 chromodomain [2]", "value": 0, "unit": "kcal/mol"},
      {"measurement": "ΔS", "setting": "CBX1 chromodomain [2]", "value": 0, "unit": "cal/mol/degree"}
    ]},
    {"substance": "NTKRESGR[Lys(Me3)]VQSGNINA [compound 15, TCPG-K21me3 peptide]", "values": [
      {"measurement": "demethylation by KDM4E", "setting": "KDM4E", "value": "marginally demethylated only by KDM4E"}
    ]}
  ]
}
